According to patent publication US20200113910A1, “TRIAZINETRIONE DERIVATIVES AND THEIR USE AS MODULATORS OF NEUROTROPHIN RECEPTOR AND RECEPTOR TYROSINE KINASES” (ALZECURE PHARMA AB, priority 2016, published 2020):

How the values were obtained:
[1] = target: T1, TrkA (Homo sapiens, UniProt P04629); test: Enzyme Fragment Complementation cell-based assay, TrkA; conditions: U2OS-cells over-expressing TrkA; ligand NGF 10 ng/mL
T1 construct: expressed in transfected cells; host or cells: U2OS
Text: (§1) A high throughput cell-based screen has been used to identify positive modulators of TrkA, TrkB and TrkC. The screen involves the use of cell-based assay overexpressing TrkA, TrkB or TrkC. The purpose of the assay is to identify compounds that modulate neurotrophin signalling (Forsell et al 2012). The assay can be used in inhibitor mode using a high concentration of ligand, in modulator mode using an intermediate concentration and in agonist mode using a low concentration of ligand.
(§2) The assay uses Enzyme Fragment Complementation (EFC) technique, which is a proximity-based assay. Briefly, cells used in this assay over-express two fusion proteins, i.e. the receptor, which can be either one of TrkA, TrkB, TrkC, IGF1R or FGFR1, fused to a small peptide of 8-galactosidase and an adaptor protein, i.e. SHC1 (or any other Trk-adaptor protein) fused to the major part of 8-galactosidase. […] The proximity between the small activating peptide on the receptor and the major part of 8-galactosidase on the adaptor protein leads to an active 8-galactosidase enzyme. The activation of the receptor is quantified by measuring the amount of active 8-galactosidase by its conversion of a non-luminescent substrate into a luminescent product.
(§3) U2OS-cells, over-expressing TrkA or TrkB or TrkC, are plated in 96- or 384-well plates and incubated overnight. Alternatively, cryopreserved HEK293-cells expressing IGFR1 or cryopreserved U2OS-cells expressing FGFR1 were plated in 96- or 384-well plates. On the following day, test compound was pre-mixed with ligand (NGF, BDNF, NT-3, IGF-1 or basic fibroblast growth factor (bFGF(FGF-2))) and the ligand-compound mixture is then added to the cells to yield a final ligand concentration of typically 10 ng/mL (or as indicated in FIGS. 3 and 4). After 3 hours of incubation at room temperature, the incubation is stopped by the addition of a β-galactosidase substrate mixture containing detergents. The substrate mixture is incubated for 60 minutes at ambient temperature. The luminescence is thereafter read by the use of a plate reader.
(§4) The potency is expressed as EC50 (pM) and the efficacy as % stimulation over 10 ng/mL of ligand . The ligands used was: NGF (for TrkA assay), BDNF (for TrkB assay), NT-3 (for TrkC assay) bFGF (for FGFR1 assay), IGF-1 (for IGFR1 assay), respectively.

[2] = target: T2, TrkB (Homo sapiens, UniProt Q16620); test: Enzyme Fragment Complementation cell-based assay, TrkB; conditions: for TrkB efficacy, % stimulation over 10 ng/mL of ligand: U2OS-cells over-expressing TrkB, ligand BDNF 10 ng/mL
T2 construct: expressed in transfected cells; host or cells: U2OS
T2 sequence (Q16620 32-822): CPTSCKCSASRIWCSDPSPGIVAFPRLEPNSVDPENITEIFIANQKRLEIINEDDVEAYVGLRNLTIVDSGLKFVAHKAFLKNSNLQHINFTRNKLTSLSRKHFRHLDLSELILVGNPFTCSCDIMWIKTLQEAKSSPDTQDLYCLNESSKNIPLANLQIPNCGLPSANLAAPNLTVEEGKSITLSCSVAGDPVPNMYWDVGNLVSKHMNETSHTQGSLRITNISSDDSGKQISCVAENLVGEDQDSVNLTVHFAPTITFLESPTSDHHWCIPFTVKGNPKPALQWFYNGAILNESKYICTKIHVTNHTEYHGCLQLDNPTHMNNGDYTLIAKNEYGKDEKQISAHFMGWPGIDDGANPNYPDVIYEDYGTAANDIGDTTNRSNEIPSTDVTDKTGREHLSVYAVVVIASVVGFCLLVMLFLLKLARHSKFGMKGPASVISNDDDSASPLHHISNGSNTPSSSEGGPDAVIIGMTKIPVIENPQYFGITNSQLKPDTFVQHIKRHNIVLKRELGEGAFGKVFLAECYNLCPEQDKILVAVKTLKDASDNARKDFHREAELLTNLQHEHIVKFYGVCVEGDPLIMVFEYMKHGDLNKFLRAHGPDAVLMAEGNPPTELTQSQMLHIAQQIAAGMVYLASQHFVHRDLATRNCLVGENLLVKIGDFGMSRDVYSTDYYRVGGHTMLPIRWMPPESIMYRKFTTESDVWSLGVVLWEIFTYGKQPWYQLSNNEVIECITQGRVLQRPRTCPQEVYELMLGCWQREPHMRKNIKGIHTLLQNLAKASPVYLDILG
Text: as §1, §2, §3, §4

[3] = target: T3, TrkC (Homo sapiens, UniProt Q16288); test: Enzyme Fragment Complementation cell-based assay, TrkC; conditions: U2OS-cells over-expressing TrkC; ligand NT-3 10 ng/mL
T3 construct: expressed in transfected cells; host or cells: U2OS
T3 sequence (Q16288 32-839): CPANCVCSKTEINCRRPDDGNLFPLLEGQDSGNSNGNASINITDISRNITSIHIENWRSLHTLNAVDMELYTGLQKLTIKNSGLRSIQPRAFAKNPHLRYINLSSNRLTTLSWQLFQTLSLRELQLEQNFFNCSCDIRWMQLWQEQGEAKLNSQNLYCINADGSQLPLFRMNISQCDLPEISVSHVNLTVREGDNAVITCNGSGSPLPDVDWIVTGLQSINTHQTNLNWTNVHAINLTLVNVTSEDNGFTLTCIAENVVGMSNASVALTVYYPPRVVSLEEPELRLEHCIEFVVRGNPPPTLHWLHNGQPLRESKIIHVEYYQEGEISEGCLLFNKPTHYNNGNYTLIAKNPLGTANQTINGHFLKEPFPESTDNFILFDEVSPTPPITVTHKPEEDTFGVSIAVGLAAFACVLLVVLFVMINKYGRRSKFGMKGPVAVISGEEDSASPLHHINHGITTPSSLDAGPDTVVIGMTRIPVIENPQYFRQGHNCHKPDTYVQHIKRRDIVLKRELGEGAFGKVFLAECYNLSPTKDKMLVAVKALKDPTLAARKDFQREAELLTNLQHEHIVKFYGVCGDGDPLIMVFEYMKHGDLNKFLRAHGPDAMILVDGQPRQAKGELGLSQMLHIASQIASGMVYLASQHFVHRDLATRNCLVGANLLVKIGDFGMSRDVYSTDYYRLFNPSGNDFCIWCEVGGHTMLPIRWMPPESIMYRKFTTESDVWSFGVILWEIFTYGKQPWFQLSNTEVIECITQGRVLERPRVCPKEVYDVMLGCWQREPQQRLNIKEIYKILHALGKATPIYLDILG
Text: as §1, §2, §3, §4

[4] = target: T4, FGFR1 (Homo sapiens, UniProt P11362); test: Enzyme Fragment Complementation cell-based assay, FGFR1; conditions: U2OS-cells expressing FGFR1; ligand bFGF 10 ng/mL
T4 construct: expressed in transfected cells; host or cells: U2OS (cryopreserved)
T4 sequence (P11362 22-822): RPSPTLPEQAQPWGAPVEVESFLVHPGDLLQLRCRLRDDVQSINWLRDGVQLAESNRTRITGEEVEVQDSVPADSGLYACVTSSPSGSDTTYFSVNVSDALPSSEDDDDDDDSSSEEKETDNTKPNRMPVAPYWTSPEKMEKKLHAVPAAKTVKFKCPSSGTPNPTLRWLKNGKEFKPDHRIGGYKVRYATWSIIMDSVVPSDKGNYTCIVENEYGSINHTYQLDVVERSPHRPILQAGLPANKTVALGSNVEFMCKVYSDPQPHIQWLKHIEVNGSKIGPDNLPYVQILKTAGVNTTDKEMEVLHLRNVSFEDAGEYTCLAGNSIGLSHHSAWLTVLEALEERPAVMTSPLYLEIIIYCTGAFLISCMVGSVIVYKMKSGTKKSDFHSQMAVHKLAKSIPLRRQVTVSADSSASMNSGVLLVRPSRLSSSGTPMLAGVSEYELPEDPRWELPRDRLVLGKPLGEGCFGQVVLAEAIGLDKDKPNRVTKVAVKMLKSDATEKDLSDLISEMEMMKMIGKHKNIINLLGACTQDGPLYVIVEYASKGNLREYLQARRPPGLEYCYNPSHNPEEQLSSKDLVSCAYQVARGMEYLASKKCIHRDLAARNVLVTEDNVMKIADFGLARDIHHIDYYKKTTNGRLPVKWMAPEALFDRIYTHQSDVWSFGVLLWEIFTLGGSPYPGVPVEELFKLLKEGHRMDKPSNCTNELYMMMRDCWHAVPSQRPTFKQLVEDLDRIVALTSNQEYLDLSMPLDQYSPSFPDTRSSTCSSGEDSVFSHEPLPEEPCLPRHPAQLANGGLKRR
Text: as §2, §3, §4

[5] = target: T5, IGF1R (Homo sapiens, UniProt P08069); test: Enzyme Fragment Complementation cell-based assay, IGF1R; conditions: HEK293-cells expressing IGFR1; ligand IGF-1 10 ng/mL
T5 construct: expressed in transfected cells; host or cells: HEK293 (cryopreserved)
T5 sequence (P08069 31-736 limits assumed): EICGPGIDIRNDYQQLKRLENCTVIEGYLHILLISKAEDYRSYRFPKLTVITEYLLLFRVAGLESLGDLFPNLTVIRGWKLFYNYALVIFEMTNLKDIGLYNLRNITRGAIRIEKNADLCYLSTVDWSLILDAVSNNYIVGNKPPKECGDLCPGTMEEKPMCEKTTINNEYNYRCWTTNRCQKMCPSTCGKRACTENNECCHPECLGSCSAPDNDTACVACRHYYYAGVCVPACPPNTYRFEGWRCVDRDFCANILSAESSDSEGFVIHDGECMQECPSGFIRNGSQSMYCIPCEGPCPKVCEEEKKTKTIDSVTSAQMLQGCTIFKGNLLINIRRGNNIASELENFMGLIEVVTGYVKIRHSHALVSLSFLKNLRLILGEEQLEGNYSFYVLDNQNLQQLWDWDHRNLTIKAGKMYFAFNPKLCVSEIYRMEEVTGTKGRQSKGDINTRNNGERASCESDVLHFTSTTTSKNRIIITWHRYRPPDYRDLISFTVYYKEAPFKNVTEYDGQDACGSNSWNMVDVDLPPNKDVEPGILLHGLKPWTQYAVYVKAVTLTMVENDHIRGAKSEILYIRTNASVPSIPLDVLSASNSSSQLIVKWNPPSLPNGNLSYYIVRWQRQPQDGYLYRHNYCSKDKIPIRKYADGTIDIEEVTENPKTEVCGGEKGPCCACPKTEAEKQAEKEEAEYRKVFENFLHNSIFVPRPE
T5 sequence (P08069 741-1367 limits assumed): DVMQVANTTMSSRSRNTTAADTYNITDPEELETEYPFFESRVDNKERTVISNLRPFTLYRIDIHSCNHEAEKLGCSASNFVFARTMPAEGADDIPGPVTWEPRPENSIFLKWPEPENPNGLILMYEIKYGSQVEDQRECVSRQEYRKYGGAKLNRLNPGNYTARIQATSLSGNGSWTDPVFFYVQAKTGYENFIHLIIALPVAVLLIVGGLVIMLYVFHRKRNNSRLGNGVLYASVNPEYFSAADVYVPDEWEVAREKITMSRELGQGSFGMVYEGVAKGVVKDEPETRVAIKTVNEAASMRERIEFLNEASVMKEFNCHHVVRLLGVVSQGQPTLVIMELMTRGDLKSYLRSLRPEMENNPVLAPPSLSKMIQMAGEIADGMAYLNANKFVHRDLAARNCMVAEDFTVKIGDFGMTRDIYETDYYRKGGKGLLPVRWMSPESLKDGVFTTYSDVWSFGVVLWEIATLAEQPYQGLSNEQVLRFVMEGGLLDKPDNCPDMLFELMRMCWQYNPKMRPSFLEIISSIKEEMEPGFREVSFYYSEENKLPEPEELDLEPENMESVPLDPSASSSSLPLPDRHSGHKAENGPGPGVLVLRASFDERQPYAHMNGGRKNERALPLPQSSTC
Text: as §2, §3, §4

[6] = system: C57/BI6 mice; test: Passive avoidance task, scopolamine-treated mice (Example 1); type: in vivo; conditions: 20 mg/kg i.p. once per day for 4 days; scopolamine 0.3 mg/kg s.c.; FIG. 1
Protocol: (§5) Passive avoidance (PA) is an aversive learning task based on classical (Pavlovian) fear conditioning that allows for analysis of both facilitation and impairment of memory function by adjusting the unconditioned stimulus, i.e. the electrical foot shock. Commonly a cognitive-impairing agent is administered to the animals to mimic the neurochemical disturbances present in various cognitive disorders e.g. cholinergic (scopolamine) and glutamatergic (MK-801) deficits.
(§6) Prior to testing, the animals are brought to the experimental room where they were allowed to habituate for 60 min. The test is conducted using a modified shuttle box with two communicating compartments of equal size with a small sliding door built into the separating wall and a stainless steel bar floor. One of the compartments is not illuminated and thus black whereas the other compartment (the light one) is illuminated by an electric bulb, installed on the top of a plexiglass cover. The PA training is conducted in a single session. […] Latency to cross over into the dark compartment (training latency) is recorded. […] The latency to cross over into the dark compartment with all four feet is measured (retention latency) as well as time in bright compartment and a number of other relevant parameters (e.g. number of visits in the dark compartment). […]

[7] = system: ephrin type-B receptor 2 (EphB2); conditions: Suzuki et al., FEBS Open Bio 2016; cited from earlier work
[8] = system: cellular prion protein (PrP^C); conditions: Suzuki et al., FEBS Open Bio 2016; cited from earlier work
[9] = system: C57/BI6 mice; test: Passive avoidance task, MK-801-treated mice (Example 2); type: in vivo; conditions: different doses i.p. once per day for 4 days; MK-801 0.3 mg/kg s.c.; FIG. 2
Protocol: as §5, §6

[10] = FIG. 3, cells stimulated with or without BDNF

T1 sequence (P04629 33-796): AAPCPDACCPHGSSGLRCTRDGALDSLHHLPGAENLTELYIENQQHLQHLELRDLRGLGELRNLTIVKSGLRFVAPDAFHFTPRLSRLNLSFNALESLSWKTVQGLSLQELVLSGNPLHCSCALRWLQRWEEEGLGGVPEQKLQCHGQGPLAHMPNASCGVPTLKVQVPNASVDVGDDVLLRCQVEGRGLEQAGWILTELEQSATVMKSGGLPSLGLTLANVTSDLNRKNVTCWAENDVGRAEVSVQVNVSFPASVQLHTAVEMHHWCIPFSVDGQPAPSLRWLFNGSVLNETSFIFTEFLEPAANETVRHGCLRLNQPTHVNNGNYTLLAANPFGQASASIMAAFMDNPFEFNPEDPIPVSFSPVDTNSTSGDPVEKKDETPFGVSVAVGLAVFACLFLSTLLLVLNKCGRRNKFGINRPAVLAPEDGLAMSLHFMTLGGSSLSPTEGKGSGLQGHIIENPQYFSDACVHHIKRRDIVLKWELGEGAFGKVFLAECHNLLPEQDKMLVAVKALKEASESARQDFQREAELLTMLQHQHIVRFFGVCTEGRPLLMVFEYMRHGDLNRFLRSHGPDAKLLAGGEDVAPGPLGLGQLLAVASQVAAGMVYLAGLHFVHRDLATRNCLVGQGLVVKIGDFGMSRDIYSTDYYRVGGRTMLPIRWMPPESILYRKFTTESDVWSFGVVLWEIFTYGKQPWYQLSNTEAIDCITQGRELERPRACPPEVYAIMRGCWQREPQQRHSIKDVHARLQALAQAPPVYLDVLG

Row | SMILES | TrkA efficacy, % stimulation over 10 ng/mL of ligand [1] [%] | TrkB efficacy, % stimulation over 10 ng/mL of ligand [2] [%] | TrkC efficacy, % stimulation over 10 ng/mL of ligand [3] [%] | decrease of activity at the two highest concentrations tested, TrkB expressing cells [2, 10] | FGFR1 efficacy, % stimulation over 10 ng/mL of ligand [4] [%] | IGF1R efficacy, % stimulation over 10 ng/mL of ligand [5] [%] | dose-response curve with BDNF as ligand in TrkB expressing cells [2, 10] | retention latency in passive avoidance task (cognitive function) [6] | inhibition of binding of β-amyloid oligomers to EphB2 [7] [%] | inhibitory activity at the cellular prion protein (PrP^C) [8] | total time spent in bright compartment in passive avoidance task (cognitive function) [9]
1 | Cc1cc(-n2c(=O)[nH]c(=O)n(-c3ccccc3)c2=O)ccc1Oc1ccc(S(=O)(=O)C(F)(F)F)cc1 [Compound 6, 1-[-3-methyl-4-(4-trifluoromethanesulfonylphenoxy)phenyl]-3-phenyl-1,3,5-triazinane-2,4,6-trione] | 147 | 300 | 124 | – | – | – | – | – | – | – | –
2 | Cc1cc(-n2c(=O)[nH]c(=O)n(-c3ccccc3)c2=O)ccc1Oc1ccc([S+]([O-])C(F)(F)F)cc1 (centres unmarked) [Compound 4, 1-[3-methyl-4-(4-trifluoromethanesulfinylphenoxy)phenyl]-3-phenyl-1,3,5-triazinane-2,4,6-trione] | 128 | 217 | 69 | – | – | – | – | – | – | – | –
3 | Cc1cc(-n2c(=O)[nH]c(=O)n(C)c2=O)ccc1Oc1ccc([S+]([O-])C(F)(F)F)cc1 (centres unmarked) [Compound 3, 1-methyl-3-[3-methyl-4-(4-trifluoromethanesulfinylphenoxy)phenyl]-1,3,5-triazinane-2,4,6-trione] | 143 | 196 | 74 | not observed | 102 | 109 | – | – | – | – | –
4 | Cc1cc(-n2c(=O)[nH]c(=O)n(-c3ccccc3)c2=O)ccc1Oc1ccc(SC(F)(F)F)cc1 [Compound 5, 1-(3-methyl-4-{4-[(trifluoromethyl)sulfanyl]phenoxy}phenyl)-3-phenyl-1,3,5-triazinane-2,4,6-trione] | 112 | 210 | 84 | – | – | – | – | – | – | – | –
5 | Cc1cc(-n2c(=O)[nH]c(=O)n(C)c2=O)ccc1Oc1ccc(SC(F)(F)F)cc1 [Compound 1, 1-methyl-3-(3-methyl-4-{4-[(trifluoromethyl)sulfanyl]phenoxy}phenyl)-1,3,5-triazinane-2,4,6-trione] | 109 | 124 | 87 | significantly decreases | 73 | 83 | no clear dose-response curve | increased retention latency | 30 | lack of similar inhibitory activity | –
6 | Cc1cc(-n2c(=O)[nH]c(=O)n(C)c2=O)ccc1Oc1ccc(S(=O)(=O)C(F)(F)F)cc1 [Compound 2, 1-methyl-3-[3-methyl-4-(4-trifluoromethanesulfonylphenoxy)phenyl]-1,3,5-triazinane-2,4,6-trione] | 138 | 232 | 70 | not observed | 43 | 25 | – | – | – | – | increased time spent in the bright area
